Assay results published in EP1051405B1, “NOVEL DIHYDROXYHEXANOIC ACID DERIVATIVES” (Pfizer Products Inc., priority 1998, dated 1999).

Assay: physchem
Settings: phosphate buffer, pH 7, aqueous buffer
Experimental: Solubility of the compounds is determined at four fixed concentrations and is expressed as µg/mL. Solubility or insolubility is measured in phosphate buffer using a turbidometric plate reader by automated micro addition of a compound predissolved in DMSO. Solubilities at 50, 100, 200 and 250 or 100, 200, 400 and 500 micrograms/mL can be determined by predissolving 1 mg of compound in sufficient DMSO to reach an initial concentration of 20 or 40 µg/ µL.
A spectramax 250 UV transparent 96 well microplate is filled with 200 µL of Stock pH 7 phosphate buffer solution. A series of 25 absorption readings in a 5 by 5 matrix at a wavelength of 492nm are taken for each well in the microplate containing pH buffer alone. […]
After compound addition, a second scan consisting of a series of 25 absorption readings in a 5 by 5 matrix are taken for each well in the microplate at the same wavelength as the first blank scan. The raw compound OD values for each reading in the 5 by 5 matrix are subtracted from the corresponding "blank" values in the 5 by 5 matrix to provide the raw solubility OD data.
Data obtained from the Tecan SLT Spectra Image Reader is then analyzed using a Visual Basic computer program (or can be calculated manually according to methods well known to those of ordinary skill in the art), so as to provide solubility data for each compound.

CC(C)(O)CC[C@H](C[C@H](O)[C@H](Cc1cccc(Cl)c1)NC(=O)c1cnc2ccccc2n1)C(N)=O [Example 2, Quinoxaline-2-carboxylic acid [4(R)-carbamoyl-1(S)-(3-chloro-benzyl)-2(S),7-dihydroxy-7-methyl-octyl]-amide]
solubility: > 100 µg/mL

CC(C)(F)CC[C@H](C[C@H](O)[C@H](Cc1ccccc1)NC(=O)c1cnc(Cl)c(Cl)c1)C(N)=O [Example 247]
solubility: < 5 µg/mL
